According to ChEMBL document CHEMBL1135507, “II. Synthesis and biological evaluation of some bioisosteres and congeners of the antitumor agent, 2-(4-[(7-chloro-2-quinoxalinyl)oxy]phenoxy)propionic acid (XK469)” (2002):
Active and inactive are the calls of the source. The calls are words filed in the database; no cut-off is given here.

Columns and labels:
Mus musculus [1] = experiment: […] cytotoxicity against advanced stage pancreatic ductal adenocarcinoma 03 after the administration of 7 injections (iv) at a dose of 560(mg/kg) in 7 Mice; format: functional
Mus musculus [2] = experiment: […] cytotoxicity against advanced stage pancreatic ductal adenocarcinoma 03 after the administration of 7 injections (iv) at a dose of 560(mg/kg); format: functional
[3] = […] cytotoxicity against resistant mammary adenocarcinoma-17/adr(M17/adr) after the administration of 6 injections (iv) at a dose of 450 (mg/kg) in 5 Mice; format: functional, Mus musculus
[4] = In vitro cytotoxicity against resistant mammary adenocarcinoma-17/adr(M17/adr) after the administration of 6 injections (iv) at a dose of 450 (mg/kg); format: functional, Mus musculus
Mus musculus [5] = experiment: […] cytotoxicity against advanced stage pancreatic ductal adenocarcinoma 03 after the administration of 6 injections (iv) at a dose of 480 (mg/kg) in 4 Mice; format: functional
Mus musculus [6] = experiment: […] cytotoxicity against advanced stage pancreatic ductal adenocarcinoma 03 after the administration of 6 injections (iv) at a dose of 480 (mg/kg); format: functional
[7] = In vitro cytotoxicity against resistant mammary adenocarcinoma-17/adr(M17/adr) after the administration of 7 injections (iv) at a dose of 324(mg/kg) in 5 Mice; format: functional, Mus musculus
[8] = In vitro cytotoxicity against resistant mammary adenocarcinoma-17/adr(M17/adr) after the administration of 7 injections (iv) at a dose of 324(mg/kg); format: functional, Mus musculus
[9] = In vitro cytotoxicity against resistant mammary adenocarcinoma-17/adr(M17/adr) after the administration of 6 injections (iv) at a dose of 300 mg/kg in 5 Mice; format: functional, Mus musculus
Mus musculus [10] = experiment: […] cytotoxicity against advanced stage pancreatic ductal adenocarcinoma 03 after the administration of 7 injections (iv) at a dose of 336(mg/kg) in 5 Mice; format: functional
[11] = In vitro cytotoxicity against resistant mammary adenocarcinoma-17/adr(M17/adr) after the administration of 6 injections (iv) at a dose of 300 mg/kg; format: functional, Mus musculus
Mus musculus [12] = experiment: […] cytotoxicity against advanced stage pancreatic ductal adenocarcinoma 03 after the administration of 7 injections (iv) at a dose of 336(mg/kg); format: functional
Mus musculus [13] = experiment: […] cytotoxicity against advanced stage pancreatic ductal adenocarcinoma 03 after the administration of 5 injections (iv) at a dose of 450 (mg/kg) in 5 Mice; format: functional
Mus musculus [14] = experiment: […] cytotoxicity against advanced stage pancreatic ductal adenocarcinoma 03 after the administration of 5 injections (iv) at a dose of 450 (mg/kg); format: functional
Mus musculus [15] = experiment: […] cytotoxicity against advanced stage pancreatic ductal adenocarcinoma 03 after the administration of 5 injections (iv) at a dose of 450 (mg/kg) in 5 mice; format: functional
[16] = In vitro cytotoxicity against resistant mammary adenocarcinoma-17/adr(M17/adr) after the administration of 6 injections (iv) at a dose of 352(mg/kg); format: functional, Mus musculus
[17] = In vitro cytotoxicity against resistant mammary adenocarcinoma-17/adr(M17/adr) after the administration of 6 injections (iv) at a dose of 352(mg/kg) in 5 Mice; format: functional, Mus musculus
Mus musculus [18] = experiment: […] cytotoxicity against resistant mammary adenocarcinoma-17/adr(M17/adr) after the administration of 7 injections (iv) at a dose of 462 (mg/kg);Activity value is none; format: functional, organism-based
[19] = […] cytotoxicity against resistant mammary adenocarcinoma-17/adr(M17/adr) after the administration of 7 injections (iv) at a dose of 462 (mg/kg); format: functional, Mus musculus
[20] = In vitro cytotoxicity against resistant mammary adenocarcinoma-17/adr(M17/adr) after the administration of 7 injections (iv) at a dose of 462 (mg/kg) in 4 Mice; format: functional, Mus musculus
[21] = In vitro cytotoxicity against resistant mammary adenocarcinoma-17/adr(M17/adr) after the administration of 7 injections (iv) at a dose of 370 (mg/kg); format: functional, Mus musculus
[22] = In vitro cytotoxicity against resistant mammary adenocarcinoma-17/adr(M17/adr) after the administration of 7 injections (iv) at a dose of 370 (mg/kg) in 5 Mice; format: functional, Mus musculus
[23] = […] cytotoxicity against resistant mammary adenocarcinoma-17/adr(M17/adr) after the administration (iv) of 13 injections at a dose of 364(mg/kg); format: functional, Mus musculus
[24] = […] cytotoxicity against resistant mammary adenocarcinoma-17/adr(M17/adr) after the administration (iv) of 13 injections at a dose of 364(mg/kg) in 5 Mice; format: functional, Mus musculus
Mus musculus [25] = experiment: […] cytotoxicity against resistant mammary adenocarcinoma-17/adr(M17/adr) after the administration of 7 injections (iv) at a dose of 455 (mg/kg); Activity value is none; format: functional, organism-based
[26] = In vitro cytotoxicity against resistant mammary adenocarcinoma-17/adr(M17/adr) after the administration of 7 injections (iv) at a dose of 455 (mg/kg); format: functional, Mus musculus
[27] = In vitro cytotoxicity against resistant mammary adenocarcinoma-17/adr(M17/adr) after the administration of 7 injections (iv) at a dose of 455 (mg/kg) in 3 Mice; format: functional, Mus musculus

Work on CC(Oc1ccc(Oc2ccc3ccc(Cl)cc3n2)cc1)C(=O)O (stereo not drawn) yielded a Cures (Mus musculus [1]) of 0, a Drug deaths (Mus musculus [1]) of 0 and an Activity rating (Mus musculus [2]) of 2.8. The “Body weight loss at nadir” value (Mus musculus [2]) was 3.7%, the “Log tumor cell kill” value (Mus musculus [2]) was 2.3 and the T/C (Mus musculus [2]) was 14.1%.
Work on COc1ccc2ccc(Oc3ccc(OC(C)C(=O)O)cc3)nc2c1 (stereo not drawn) yielded a Cures [3] of 0, a Drug deaths [3] of 0 and an Activity rating [4] of over 2.8. For the same molecule, the “Body weight loss at nadir” value [4] was -5%, the “Log tumor cell kill” value [4] was 3 and the T/C [4] was 0%.
For CC(Oc1ccc(Oc2ccc3ccc(Br)cc3n2)cc1)C(=O)O (stereo not drawn), the Cures (Mus musculus [5]) was 0, the Drug deaths (Mus musculus [5]) was 0 and the Activity rating (Mus musculus [6]) was over 2.8. The “Body weight loss at nadir” value (Mus musculus [6]) was 5.9%, the “Log tumor cell kill” value (Mus musculus [6]) was 3.1 and the T/C (Mus musculus [6]) was 2.8%.
CC(Oc1ccc(Oc2cnc3ccc(Cl)cc3n2)cc1)C(=O)O (stereo not drawn) showed a Cures (Mus musculus [1]) of 0, a Drug deaths (Mus musculus [1]) of 0 and an Activity rating (Mus musculus [2]) of 2.8. For the same molecule, the “Body weight loss at nadir” value (Mus musculus [2]) was 2.5%, the “Log tumor cell kill” value (Mus musculus [2]) was 2 and the T/C (Mus musculus [2]) was 24.5%.
With CC(Oc1ccc(Oc2ccc3ccc(F)cc3n2)cc1)C(=O)O (racemic) the Cures [7] was 0, the Drug deaths [7] was 0 and the Activity rating [8] was 1.9. For the same molecule, the “Body weight loss at nadir” value [8] was -1.6%, the “Log tumor cell kill” value [8] was 1.5 and the T/C [8] was 14%.
For CC(Oc1ccc(Oc2ccc3ccc(Cl)cc3n2)cc1)C(=O)O (racemic), the Cures [9] was 0, the Drug deaths [9] was 0 and the Cures (Mus musculus [10]) was 0. For the same molecule, the Drug deaths (Mus musculus [10]) was 0, the Activity rating [11] was over 2.8 and the “Body weight loss at nadir” value [11] was -10.6%. For the same molecule, the “Log tumor cell kill” value [11] was 3.8, the T/C [11] was 0% and the Activity rating (Mus musculus [12]) was 2.8. The “Body weight loss at nadir” value (Mus musculus [12]) was -8.9%, the “Log tumor cell kill” value (Mus musculus [12]) was 2.6 and the T/C (Mus musculus [12]) was 0%.
For COc1ccc2ccc(Oc3ccc(OC(C)C(=O)O)cc3)nc2c1 (racemic), the Drug deaths (Mus musculus [13]) was 0, the Activity rating (Mus musculus [14]) was 1.2 and the “Body weight loss at nadir” value (Mus musculus [14]) was -2%. For the same molecule, the “Log tumor cell kill” value (Mus musculus [14]) was 0.8, the T/C (Mus musculus [14]) was 45% and the Cures (Mus musculus [15]) was 0.
With CC(Oc1ccc(Oc2ccc3ccc(Br)cc3n2)cc1)C(=O)O (racemic) the Activity rating [16] was over 2.8, the “Body weight loss at nadir” value [16] was -5.5% and the “Log tumor cell kill” value [16] was 4.2. The T/C [16] was 0%, the Cures [17] was 0 and the Drug deaths [17] was 0.
With CC(Oc1ccc(Oc2nc3cc(Cl)ccc3o2)cc1)C(=O)O (racemic) the “Log tumor cell kill” value (Mus musculus [18]) was “inactive”, the Activity rating [19] was under 0.7 and the “Body weight loss at nadir” value [19] was -2.3%. The T/C [19] was over 100%, the Cures [20] was 0 and the Drug deaths [20] was 0.
With CC(Oc1ccc(Oc2ccc3ccc(I)cc3n2)cc1)C(=O)O (racemic) the Activity rating [21] was 1.9, the “Body weight loss at nadir” value [21] was -4% and the “Log tumor cell kill” value [21] was 2.1. For the same molecule, the T/C [21] was 2%, the Cures [22] was 0 and the Drug deaths [22] was 0.
For CC(Oc1ccc(Oc2cnc3ccc(Cl)cc3n2)cc1)C(=O)O (racemic), the Activity rating [23] was over 2.8, the “Body weight loss at nadir” value [23] was 0% and the “Log tumor cell kill” value [23] was 2.82. The T/C [23] was 10.3%, the Cures [24] was 0 and the Drug deaths [24] was 0.
In the case of CC(Oc1ccc(Oc2nc3ccc(Cl)cc3o2)cc1)C(=O)O (racemic) [FENOXAPROP], the “Log tumor cell kill” value (Mus musculus [25]) is reported as “inactive”, the Activity rating [26] is reported as under 0.7 and the “Body weight loss at nadir” value [26] is reported as 0%. For the same molecule, the T/C [26] was over 100%, the Cures [27] was 0 and the Drug deaths [27] was 0.
